According to article PMC11651915, “Small molecule protein assembly modulators with pan-cancer therapeutic efficacy” (Open Biology, 2024):
Structures can show the parent of a compound that is named as a salt.

How the values were obtained:
[1] = test system: NCI-60 cancer cell lines; details: for anti-cancer activity in NCI-60 single-dose testing: single dose 2.5 µM
[2] = test system: A549; assay: In-house cancer cell viability screen (AlamarBlue); type: cell-based, human; details: for change of potency when compound is added at the time of plating rather than 24 h later: A549; for IC50: Homo sapiens, AlamarBlue
[3] = test system: A549 and MRC-5 cells; assay: Toxicity to A549 cancer line versus non-cancer MRC-5 cells; type: cell-based
[4] = Mouse pharmacokinetics (plasma and lung); type: in vivo; details: PAV-621 5 mg kg^−1 IP versus PAV-951 2.5 mg kg^−1 IV
Method: Pharmacokinetic (PK) studies were conducted in male Sprague Dawley Rats aged 8–10 weeks or male CD1 mice aged 5–6 weeks or Balb/c nude mice. Treatment groups were made up of four animals each and dosing regimens for disclosed data is provided. Animals were sacrificed at the end of the study period using an overdose of CO2. PK studies were conducted at Vipragen Biosciences Private Limited or Pharmaron in accordance with the CPCSEA guidelines and ARRIVE guidelines.
CD1 or Balb/c nude mice aged 6–8 weeks were randomly divided into treatment groups with three animals per group. Animals in each treatment group were weighed and received either one […] intravenous dose of either vehicle (10% DMSO, 45% propylene glycol, 45% sterile water) or 2.5 mg kg^−1 PAV-951, or one intraperitoneal dose of either vehicle ([…] 10% DMSO, 45% propylene glycol, 45% sterile water) or 5 mg kg^−1 PAV-621. Animals were sacrificed after 1 h, 4 h, 8 h, 24 h post-dosing. Concentration of drug in the plasma and lung over time was measured using a Waters Acquity TQD LCMS/MS. Maximum concentration (Cmax) was determined to be the maximum concentration detected in a dataset. Half life, area under the curve and mean residence time were calculated with Phoenix WinNolin software.

[5] = in vivo; details: female, Balb/c, mouse, ip
[6] = test system: A549 human lung cancer xenograft; assay: A549 xenograft studies; details: for tumour growth inhibition (TGI): A549 xenograft, Gemcitabine 100 mg kg^−1 twice weekly
[7] = mouse MTD; cited from earlier work
[8] = test system: HT-29 colorectal cancer xenograft; assay: HT-29 xenograft study; type: in vivo, mouse; details: 17 days, PAV-951 3 mg kg^−1 IV, Irinotecan 60 mg kg^−1 IP
Method: In the second animal efficacy study, human HT-29 colorectal adenocarcinoma cells were grafted subcutaneously onto mice. After tumour establishment, the animals received treatment with vehicle, 3 mg kg^−1 PAV-951 or 60 mg kg^−1 of a positive control drug Irinotecan. […]. Survival was not assessed as part of the study.
HT-29 cells growing in HBSS medium were suspended in Matrigel. 0.1 ml of the cell suspension containing 5 × 10^6 cells were injected subcutaneously into the left flank region of male, 6–8 week old SCID mice. After tumour establishment, animals were divided randomly into groups of six and treated daily by IV with vehicle daily for 17 days, 3 mg kg^−1 PAV-951 three times per week for 17 days, or treated by IP with 60 mg kg^−1 Irinotecan every 4 days for 14 days. Tumour volume was calculated using the formula: (L × W2)/2 where L is the largest diameter and W is the smallest diameter of the tumour. Statistical analysis was performed using GraphPad Prism (Ver. 5.03). Statistical analysis of tumour growth inhibition between the Control and Treated groups was performed by using ne-way ANOVA followed by Dunnett’s test.

[9] = test system: Mpox Zaire 79; type: cell-based, Mpox virus; details: read-out: EC50 against Mpox
[10] = test system: BB1 patient biopsy derived cell line (benign adenoma); assay: BB1 and BB5 adenoma versus carcinoma screen (confocal imaging); type: cell-based, human; details: 60 h, percent ChromaLive negative
[11] = test system: Hennes 20 cells; assay: High density/low density 'arrest of proliferation' assay; type: cell-based, Chinese hamster; details: Hennes 20, 72 h, AlamarBlue
[12] = test system: Hennes 20 cells; assay: Cell growth recovery assay; type: cell-based, Chinese hamster; details: PAV-617 0.3 µM 24 h, PAV-951 0.4 µM 6 h, followed to day 14
Method: To confirm that the inhibition observed in low-density Hennes 20 cells resulted from temporary arrest of proliferation and not cell death, compound was removed after a period of treatment and cell growth was measured over the subsequent two weeks for recovery potential. Once compound was removed, following a period of recovery, cell proliferation was restored over time for both chemotypes (see figure 1f,g). By day 11, cell density in compound-treated cells had caught up to that in the DMSO-treated cells (see figure 1f,g).
A 96-well plate was seeded with either Hennes 20 or LNCaP C-33 cells at 500 cells per well in 90 µl of minimum essential media and incubated at 37°C for 24 h. 0.5% DMSO was diluted in media and added to six control wells for each plate. PAV-617 was diluted in media and added to three wells at a concentration of 0.3 µM. PAV-951 was diluted in media and added to concentration of 0.4 µM. After 24 h of PAV-617 treatment or 6 h of PAV-951 treatment, the medium containing compound was removed and replaced with fresh media. After 72 h (day 5), plates were assayed with AlamarBlue and fluorescence was read at 530/590. The medium containing AlamarBlue was removed and replaced with fresh media. After another 72 h (day 8) plates were assayed with AlamarBlue and fluorescence again, then medium containing AlamarBlue was removed and replaced with fresh media. […]

[13] = test system: LNCaP C-33 cells; assay: Cell growth recovery assay; type: cell-based, human; details: PAV-617 0.3 µM 24 h, PAV-951 0.4 µM 6 h, followed
[14] = PAV-617 study, 28 days, IP, PAV-617 10 mg kg^−1 once daily

c1ccc(CCNc2ncnc3cc(N4CCN(c5ccc6c(NCCc7ccccc7)ncnc6c5)CC4)ccc23)cc1 [PAV-436]
anti-cancer activity in NCI-60 single-dose testing [1]: lost all anti-cancer activity on all cell lines examined

CCCCNc1ncnc2cc(N3CCN(c4ccc5c(NCCCC)ncnc5c4)CC3)ccc12 [PAV-621]
change of potency when compound is added at the time of plating rather than 24 h later [2]: increased potency
toxicity to A549 cancer line compared with non-cancer MRC-5 cells [3]: selectively toxic to the A549 cancer line
exposure in the lung [4]: comparable exposure with PAV-951
anti-cancer activity in NCI-60 single-dose testing [1]: improvements relative to PAV-951
MTD at 72 h [5]: 7.5 mg/kg

Nc1ccn([C@@H]2O[C@H](CO)[C@@H](O)C2(F)F)c(=O)n1 [Gemcitabine, Gemcitabine hydrochloride, reference compound]
change of potency when compound is added at the time of plating rather than 24 h later [2]: did not significantly affect
IC50 ([2]; A549 (treatment 0 h after plating)): 3.01 µM
IC50 ([2]; A549 (treatment 24 h after plating), 72 h): 3.92 µM
tumour growth inhibition (TGI) [6, 14]: 64%
tumour growth inhibition (TGI) ([6]; PAV-951 study, 14 days, IV, PAV-951 1.5 mg kg^−1 once daily): 84%

CCC1=C[C@@H]2CN(C1)Cc1c([nH]c3ccccc13)[C@@](C(=O)OC)(c1cc3c(cc1OC)N(C)[C@H]1[C@@](O)(C(=O)OC)[C@H](OC(C)=O)[C@]4(CC)C=CCN5CC[C@]31[C@@H]54)C2 [Vinorelbine]
MTD [7]: 10 mg/kg

cisplatin
MTD [7]: 6 mg/kg

CCc1c2c(nc3ccc(OC(=O)N4CCC(N5CCCCC5)CC4)cc13)-c1cc3c(c(=O)n1C2)COC(=O)[C@]3(O)CC [Irinotecan, reference compound]
tumour growth inhibition (TGI) [8]: 108%

3,7-Di(pyrrolidin-1-yl) phenothiazinium iodide [PAV-617]
EC50 [9]: 0.201 µM
IC50 [10]: 0.81 µM
inhibitory effect at low (500 cells per well) versus high (15 000 cells per well) density [11]: difference between their inhibitory effects on low and high density-plated Hennes 20 cells
recovery of cell growth after removal of compound [12]: recovered over time
recovery of cell growth after removal of compound [13]: did not recover
dose inhibiting growth relative to vehicle-treated cells (GI50) ([1]; for more than 40 cell lines): 2–3 digit nanomolar range
CC50 ([1]; read-out: dose required to decrease cell viability below that at the time compound was added (LC50), for at least 40 cell lines): > 100 µM
tumour growth inhibition (TGI) [6, 14]: 63%
adverse effects at the doses of the xenograft studies ([6]; clinical signs, weight loss, histopathological changes, blood cell count): without any serious adverse effects
